Read-outs that look alike come from different tables or passages of the source.
Assays:
Assay type in all cases: cell-based, human
[1] = tested on: coculture of 22Rv1 and RWEP-1 cells; experiment: Anti-galectin 8 immunolabeling of treated coculture; conditions: medium M3, 2.5×10^−4% and 1.2×10^−4%
Experimental: As a result, an anti-galectin 8 human monoclonal antibody (R&D Systems, Ref: MAB1305) was selected to specifically fluorescence-label the human prostate tumor cell line.
The healthy and tumoral cells were inoculated in coculture, at a rate of 30 000 cells per well for each cell line, in the selected medium for obtaining uniform and specific labeling of the tumoral cells.
After 24 hours in an incubator at 37° C. and 5% CO2 of saturated humidity, the coculture was incubated in the presence of β-sitosterol at two concentrations and of CPE also at two concentrations.
At the end of the incubation time with the products, the cell lawns were fixed in alcohol/acetic acid and then labeled with the anti-galectin 8 human monoclonal antibody for 1 hour. […] After intensive washing with PBS, the labeled cell lawns were observed using a Nikon DXM1200F camera driven by LUCIA 6.0 software. All the images were taken under the same conditions and with identical camera settings.
For the experiment, in order to improve the intensity of this immunolabeling and for better visual rendering quality, the concentration of the anti-galectin 8 primary antibody was increased from 1/50th to 1/20th. Furthermore, this primary antibody was incubated overnight at +4° C. for better fixing of the antibody and thus for better labeling intensity. […]

22Rv1 cells = experiment: Cell growth and viability (neutral red / sulforhodamine B) and morphology; conditions: for IC50: 72 h, read-out: CI50 (the source's name)
Experimental: (§1) Each product (1 to 5) was applied for 1 to 72 hours, at various concentrations. The number of cells was compared with a control, namely cells cultured in the absence of the test compound.
(§2) The human prostate carcinoma cells DU145 and 22Rv1 were supplied by the American Type Culture Collection (ATCC, Rockville, Md.). The DU145 cells originate from a cerebral metastasic site and are not sensitive to androgens. The 22Rv1 cells originate from a prostate carcinoma and are sensitive to androgens. The cells were maintained in the form of a monolayer culture according to the usual techniques, in […] flasks (Corning), at 37° C., in an atmosphere containing 5% CO2 and at 95% humidity, in an RPMI-1640 medium free of phenol red and supplemented with 10% of heat-inactivated fetal calf serum and 1% of L-glutamine.
(§3) Five products were tested for this study and were stored protected from light, at +4° C. The β-sitosterol (product 1), obtained from Sigma Chemicals, was first dissolved in absolute ethanol, up to a final concentration of 24.1 mM. Product 2, supplied by Barry Callebaut, France, is a defatted cocoa extract containing 35.5% polyphenols and 0.081% β-sitosterol. Product 3 was reconstituted from products 1 and 2 and contained 35.5% polyphenols and 0.72% β-sitosterol. Products 4 and 5 were manufactured by Barry Callebaut, France. The composition of product 4 is unknown, and contains no β-sitosterol. Product 5 contains 35.27% polyphenols and 0.72% β-sitosterol. Products 2, 3, 4 and 5 were first dissolved in whole medium. As regards products 2, 4 and 5, the total polyphenols of the cocoa extracts originate from different countries.
(§4) Just before use, the final concentrations of products (table 1) used are prepared for the various experiments by means of stock solutions, by diluting the stock solution in whole medium. 64.2 μM of β-sitosterol is the maximum dose used in this solubility range and in the physiological range (4 to 70 μM). The absolute ethanol is at a constant concentration of 0.26% in the solvent-based control, in the negative control and in the 8 test concentrations. The ratios of the β-sitosterol and of the polyphenols for products 2, 3 and 5 are as follows: • Product 2:2:1000 • Product 3:2:100 • Product 5:2:100
(§5) The cells were inoculated on 96-well plates at an initial density of 15 000 cells/well for DU145, at an initial density of 30 000 cells/well for 22Rv1 and at an initial density of 25 000 cells/well for RWEP-1, with 200 μL of medium per well. The cell density was optimized as a function of the time required to double the population of cells, in order to obtain a significant measurement of the Optical Density (OD) and to be able to compare the various cells lines. After 24 hours, in order to ensure uniform fixing of the cells from the start of the experiments, the products were added to the cell cultures at various concentrations and at various times. After incubation with the products, the growth and viability of the cells was measured using neutral red (NR) and sulforhodamine B (SRB) combined (In Cytotox, Vandoeuvre, France). The absorption of the vital stain NR was used by the lysosomes/endosomes and by the vacuoles of the live cells as a quantitative indication of the number and viability of the cells after treatment with a chemical test. The anionic stain SRB made it possible to quantify the viable cells via measurement of the protein content of the cells.
(§6) The cytotoxicity was evaluated 1, 3, 6, 24, 48 and 72 hours after incubating the 22Rv1, RWEP-1 and DU145 cells with the products. The cells were washed with 200 μl of washing solution in order to remove the culture medium supplemented with the products. 200 μL of neutral red base medium was added and incubated with the cells at 37° C. for 3 hours. The neutral red base medium was then removed and the cells were washed twice with phosphate-buffered physiological saline (PBS). The cells were fixed for 1 minute with 200 μL of fixing solution. […]

DU145 cells = experiment: as above
Experimental: as §1, §2, §3, §4, §5, §6

CC[C@H](CC[C@@H](C)[C@H]1CC[C@H]2[C@@H]3CC=C4C[C@@H](O)CC[C@]4(C)[C@H]3CC[C@]12C)C(C)C [β-sitosterol] was tested, and the “Area of labeling (anti-galectin 8 and Hoechst)” value [1] was “equivalent to that of the untreated proliferation control”, the “Inhibition of lysosomial activity or protein synthesis” value (22Rv1 cells; 22Rv1, 1, 3 and 6 hours of treatment) was “did not inhibit the lysosomial activity or protein synthesis” and the Morphological alterations (22Rv1 cells; 22Rv1, maximum concentration, up to 48 hours) was “No significant difference in terms of density and morphology”. For the same compound, the max. inhibition (22Rv1 cells; 24 h, 22RV1, NR) was 49%, the max. inhibition (22Rv1 cells; 24 h, 22RV1, SRB) was 49% and the max. inhibition (22Rv1 cells; 48 h, 22RV1, NR) was 36%. It also gave a max. inhibition (22Rv1 cells; 48 h, 22RV1, SRB) of 47%, an IC50 (22Rv1 cells; 22RV1, NR) of 17.8 µM and an IC50 (22Rv1 cells; 22RV1, SRB) of 34 µM. The max. inhibition (DU145 cells; 24 h, DU145, NR) was 11%, the max. inhibition (DU145 cells; 24 h, DU145, SRB) was 42% and the max. inhibition (DU145 cells; 48 h, DU145, NR) was 21%. It also gave a max. inhibition (DU145 cells; 48 h, DU145, SRB) of 44%, a max. inhibition (DU145 cells; 72 h, DU145, NR) of 42% and a max. inhibition (DU145 cells; 72 h, DU145, SRB) of 40%. For the same compound, the Morphological alterations (DU145 cells; DU145, maximum concentration, up to 48 hours) was “No significant difference was observed in terms of density and morphology” and the IC50 (DU145 cells; DU145, short-term and long-term treatments) was “did not induce an IC50”.

Source: patent publication US8435576B2, “Use of cocoa polyphenols for treating a prostate hyperplasia, a specific cocoa extract and applications” (Barry Callebaut AG, priority 2005, dated 2013)
